Data set [1] has as its system S. choleraesuis CMCC50020.
Text: The above results are average of 6 independent experimental repeats.
Data set [2] has as its system E. coli K 88. How it is done:
(§1) Bacteria was inoculated on Mueller-Hinton (MH) agar plate, the inoculated agar plate was inverted to grow single colonies. A single colony was inoculated in 3 mL MH broth, and the broth was cultured with constant shaking at constant temperature until turbid. 30 μL of bacterial suspension was then transferred to 3 mL of fresh MH broth, and the broth was cultured with shaking at constant temperature until OD600≈0.5. 10 μL bacterial suspension was transferred to 10 mL fresh MH broth and then vortexed to mix well. […] In addition, 100 μL of bacterial suspension was added to a well as positive control, and 100 μL of MH broth was added to a well as negative control. Each testing condition and controls was performed with 6 repeats.
(§2) The aforementioned antimicrobial peptides were used as controls in the same experiments described in the second, third, fourth and fifth embodiments.

In data set [3] the test system is E. coli K 12. Here is the method: as §1, §2
For data set [4], the system named is S. typhimurium CMCC50013. Here is the method:
as §1, §2

Data set [5] relates to S. epidermidis ATCC12228. How it is done: as §1, §2
Data set [6] concerns E. coli EPEC O78:K80. Here is the method: as §1, §2
Data set [7] has as its system S. aureus ATCC25923. How it is done: as §1, §2
Data set [8] deals with S. enteritidis CMCC50041. Here is the method:
as §1, §2

The test system of data set [9] is E. coli EPEC O144:K26. How it is done: as §1, §2
The test system of data set [10] is P. aeruginosa CMCC27853. How it is done:
as §1, §2

Data set [11] concerns E. coli ATCC25922. Here is the method: as §1, §2
Data set [12] has as its system E. coli EPEC O44:K74. How it is done: as §1, §2
Data set [13] deals with porcine erythrocytes. How it is done:
Blood was collected from porcine vena cava with heparin added, and mixed with RPMI1640 medium at a volume ratio of 1:1. After centrifuging with FICOLL-PAQUE™, circular and milky peripheral blood mononuclear cells (PMBCs) were drawn for later use, and erythrocytes at the bottom were collected. The erythrocytes were washed with 1×PBS until the supernatant was colorless. Then the washed erythrocytes were diluted 90-fold (1:89) with 1×PBS to determine hemolysis activity.
Triton X-100 (final concentration 1%) was used as positive control, and 10 uL 1×PBS was used as negative control. Each group was performed with 6 replications. Cells were cultured for 24 hrs at 37° C. in a cell culture incubator, and followed by centrifugation at 1500 rpm for 20 min. Then supernatant was transferred to a new 96-well plate to measure the values of OD at 414 nm and 546 nm using a microplate reader, and ΔOD was calculated. The formula for calculating hemolysis ratio is as follows: hemolysis ratio (%)=100%*(ΔOD treatment group−ΔOD negative control)/(ΔOD positive control−ΔOD negative control).
as §2

Data set [14] relates to Porcine macrophage cells (3D4/2 cell line). The data set can be described thus: LPS-induced inflammation in porcine macrophages (cytokine mRNA). It is filed as cell-based. The conditions noted are these: FIG. 5. Here is the method: Porcine macrophage cells (3D4/2 cell line) were cultured on RPMI-1640 medium with 10% fetal bovine serum, at 37° C. in a 5% CO2 cell incubator, until the cells formed a monolayer with about 80-90% confluency. The cells were counted and plated. The cells were seeded to a 6-well plate at 1×10^6/well, RPMI-1640 complete medium was added, and the cells were cultured to 80% confluency. Then the medium was replaced by fresh serum-free RPMI-1640 medium (2 mL). […] Each group of experiments was repeated for six replications. After incubation for 24 hrs, cells were collected and total RNA was extracted using Trizol. cDNA was obtained by reverse transcription. Relative mRNA expression of IL-6, IL-8 and IL-22 was detected. The relative mRNA expression of IL-22, IL-8 and IL-6 were measured by quantitative fluorescence method. GAPDH gene was used as a internal reference gene.

For data set [15], the system named is porcine peripheral mononuclear cells. The conditions noted are these: porcine PBMCs, peptide ≦256 μg/mL, 24 hrs.
Experimental: Purified PBMCs were diluted to 1×10^6 cells/mL, and cells were seeded with 90 uL per well in a 96-well plate. Further, background control well (100 μL RMPI1640 medium), low level control well (90 μL cell culture+10 μL PBS), and high level control well (90 μL cell culture+10 μL 20% Triton X-100) were also prepared. The 96-well plate was cultured at 37° C. for 2 hrs in a 5% CO2 incubator. […] Each group of experiment (each concentration) was repeated for six replications. After culturing for 24 hrs, 10 μL TritonX-100 (20%) was added to each positive control well, and mixed by pipetting. The plate was further incubated for 15 min. After culturing, the cells were centrifuged at 1500 rpm for 10 min. 60 μL of supernatant was drawn carefully from the center of each well and transferred to corresponding wells of a transparent new 96-well plate. 30 uL of LDH diluent was added to each well. The plate was cultured at room temperature for 30 min with vibration in a dark environment. OD values were recorded at 492 nm and 900 nm using a microplate reader for calculating ΔOD value. […]

≈ marks a conversion by molar mass, not a printed value. Where two headings read alike, the source gives them in different places. No end group written: not given here.

A word on the MIC: it is the lowest concentration found to suppress growth.

Consider `CC(C)C[C@H](NC(=O)[C@H](CCCNC(=N)N)NC(=O)CNC(=O)CNC(=O)[C@@H](N)CCCNC(=N)N)C(=O)N[C@H]1CSSC[C@@H](C(=O)N[C@H](C(=O)NCC(=O)N[C@@H](CCCNC(=N)N)C(N)=O)C(C)C)NC(=O)[C@H](C(C)C)NC(=O)[C@@H]2CSSC[C@H](NC(=O)[C@H](Cc3ccc(O)cc3)NC1=O)C(=O)N[C@@H](CCCNC(=N)N)C(=O)N[C@@H](CCCNC(=N)N)C(=O)N[C@@H](CCCNC(=N)N)C(=O)N[C@@H](Cc1ccccc1)C(=O)N2` [PG-1], for which the minimal inhibitory concentration (MIC) in data set [1] (CMCC50020, 24 h) is 4 µg/mL (≈ 1.86 µM); in data set [2] (K 88, 24 h), 8 µg/mL (≈ 3.71 µM); in data set [3] (K 12, 24 h) it was 8 µg/mL (≈ 3.71 µM); in data set [4] (CMCC50013, 24 h), 4 µg/mL (≈ 1.86 µM); in [5] (ATCC12228, 24 h), 4 µg/mL (≈ 1.86 µM); in data set [6] (EPEC O78:K80, 24 h) it was 16 µg/mL (≈ 7.42 µM). Also, the minimal inhibitory concentration (MIC) in data set [7] (ATCC25923, 24 h) was 2 µg/mL (≈ 0.928 µM); in data set [8] (CMCC50041, 24 h) it was 16 µg/mL (≈ 7.42 µM); in data set [9] (EPEC O144:K26, 24 h), 64 µg/mL (≈ 29.7 µM); in [10] (CMCC27853, 24 h), 8 µg/mL (≈ 3.71 µM); in [11] (ATCC25922, 24 h) it was 4 µg/mL (≈ 1.86 µM); in data set [12] (EPEC O44:K74, 24 h), 32 µg/mL (≈ 14.8 µM). Also, the “hemolysis activity (compared with WY-21)” value in [13] (FIG. 4) is on record as “higher than WY-21”.

With SWLSKTAKKLENSAKKRIAIAIQGGPR [CP-1], in data set [14], the “effect on LPS-induced inflammation” value is reported as “no effects”. The MIC in [1] (CMCC50020, 24 h) was 8 µg/mL; in data set [2] (K 88, 24 h), 4 µg/mL; in [3] (K 12, 24 h), 8 µg/mL; in data set [4] (CMCC50013, 24 h), 8 µg/mL; in data set [5] (ATCC12228, 24 h), 128 µg/mL; in data set [6] (EPEC O78:K80, 24 h) it was 16 µg/mL. Moreover, the MIC in data set [7] (ATCC25923, 24 h) was 128 µg/mL; in [8] (CMCC50041, 24 h), 16 µg/mL; in data set [9] (EPEC O144:K26, 24 h) it was 128 µg/mL; in data set [10] (CMCC27853, 24 h), 16 µg/mL; in [11] (ATCC25922, 24 h), 4 µg/mL; in data set [12] (EPEC O44:K74, 24 h) it was 32 µg/mL.

Take VKFFRKLKKSVKEKIGKEFKR [WY-21]: the minimal inhibitory concentration (MIC) in data set [1] (S. choleraesuis CMCC50020, 24 hrs at 37° C., MH broth) stood at 16 µg/mL; in data set [2] (E. coli K 88, 24 hrs at 37° C., MH broth) it was 8 µg/mL; in [3] (E. coli K 12, 24 hrs at 37° C., MH broth), 4 µg/mL; in data set [4] (S. typhimurium CMCC50013, 24 hrs at 37° C., MH broth), 16 µg/mL; in data set [5] (S. epidermidis ATCC12228, 24 hrs at 37° C., MH broth), 32 µg/mL; in [6] (E. coli EPEC O78:K80, 24 hrs at 37° C., MH broth), 16 µg/mL. Besides, the minimum inhibitory concentration (MIC) in data set [7] (S. aureus ATCC25923, 24 hrs at 37° C., MH broth) is 8 µg/mL; in data set [8] (S. enteritidis CMCC50041, 24 hrs at 37° C., MH broth), 64 µg/mL; in data set [9] (E. coli EPEC O144:K26, 24 hrs at 37° C., MH broth), 16 µg/mL; in data set [10] (P. aeruginosa CMCC27853, 24 hrs at 37° C., MH broth), 8 µg/mL; in data set [11] (E. coli ATCC25922, 24 hrs at 37° C., MH broth), 8 µg/mL; in data set [12] (E. coli EPEC O44:K74, 24 hrs at 37° C., MH broth), 8 µg/mL. The hemolysis ratio entry in [13] (peptide 512 μg/mL, 24 hrs at 37° C.) is “less than 5%”. In addition, the LDH releasing rate result in [15] is given as “less than 10%”.

The record behind these values is patent US9475843B2 (Zhejiang University, priority 2015, dated 2016).
